From paper PMC11325505, “Nitrogen-Containing Flavonoids—Preparation and Biological Activity” (ACS Omega, 2024)
Values after ≈ are worked out from the molar mass of the structure shown. Values joined by “and” are separate entries in the source; they are usually repeats but may differ in a detail not shown here. Equal values may be shown once. Read-outs that look alike come from different tables or passages of the source.

Assays:
[1] = test system: nitric oxide (NO) production by RAW 264.7 stimulated by LPS; experiment: Anti-inflammatory activity: NO production by LPS-stimulated macrophages; assay type: cell-based, Murine; conditions: Mus musculus, RAW264.7; LPS-stimulated RAW 264.7; average of four repetitions ± SEM
Protocol: (§1) The anti-inflammatory activity of flavonoids was evaluated as their ability to decrease the production of signaling molecules that mediate inflammation, such as nitric oxide (NO), tumor necrosis factor (TNF-α), and interleukin 6 (IL-6), in LPS-stimulated macrophages.
(§2) The anti-inflammatory activity of the tested flavonoids was determined as the ability to reduce the production of nitric oxide (NO), tumor necrosis factor (TNF-α), and interleukin 6 (IL-6) by RAW 264.7 stimulated by LPS, as previously described.[39],[40] Briefly, 1 × 10^6 cells/mL was seeded into the 96-well plate (100 μL/well). After 48 h, LPS (100 ng/mL) and the samples (3–100 μM) were added to the MEM medium. After 24 h, the medium was mixed with Griess reagent (0.04 g/mL) at a 1:1 ratio. The absorbance was measured after 15 min at 540 nm. Cell viability was determined using the resazurin assay.

[2] = test system: interleukin 6 (IL-6) production by RAW 264.7 stimulated by LPS; experiment: Anti-inflammatory activity: IL-6 production by LPS-stimulated macrophages; assay type: cell-based, Murine; conditions: for ability to inhibit IL-6 production compared to luteolin, in words: LPS-stimulated macrophages; for IC50: Mus musculus, RAW264.7, LPS-stimulated RAW 264.7, average of four repetitions ± SEM
Protocol: as §1, §2
(§3) To determine TNF-α levels, cells were precultivated with the tested compounds for 24 h. After 2 h of incubation with LPS, the medium was diluted 1:10 with ELISA diluent. To determine the level of IL-6, cells were cultivated for 6 h with LPS and the tested compounds. Cytokine production was determined using an uncoated ELISA performed according to the manufacturer’s instructions.

[3] = test system: tumor necrosis factor (TNF-α) production by RAW 264.7 stimulated by LPS; experiment: Anti-inflammatory activity: TNF-α production by LPS-stimulated macrophages; assay type: cell-based, Murine; conditions: Mus musculus, RAW264.7; LPS-stimulated RAW 264.7; average of four repetitions ± SEM; read-out: TNFα production IC50
Protocol: as §1, §2, §3

[4] = test system: immortalized human keratinocytes (HaCaT); experiment: Cytotoxicity (resazurin assay), keratinocytes; assay type: cell-based; conditions: Homo sapiens, HaCaT, 72 h, read-out: HaCaT IC50 (concentration that halved the viability)
Protocol: (§4) The cytotoxicity of the prepared derivatives was evaluated by their ability to decrease the viability of immortalized human keratinocytes (HaCaT) and human dermal fibroblasts (HDF).
(§5) 100 μL of cell suspension containing 10^5 cells/mL was pipetted into a 96-well plate. After 24 h incubation, the tested compounds were added in the concentration range 12.5–200 μM. After 72 h incubation, the cell viability was tested by standard resazurin assay.[41] Briefly, the cells were washed with PBS and incubated with 100 μL of resazurin solution (0.025 mg/mL) for 2 h. The fluorescence was measured at a wavelength of 560 nm excitation/590 nm emission.

[5] = test system: human dermal fibroblasts (HDF); experiment: Cytotoxicity (resazurin assay), fibroblasts; assay type: cell-based; conditions: Homo sapiens, Fibroblast, 72 h, read-out: HDF IC50 (concentration that halved the viability)
Protocol: as §4, §5

[6] = test system: Staphylococcus aureus MRSA 9; experiment: Modulation of antibiotic-resistant phenotype (flavonoid plus breakpoint concentration of antibiotic); assay type: cell-based; conditions: MIC determined as IC70, three repetitions ± SEM; for minimum inhibitory concentration (MIC) in the presence of erythromycin: erythromycin at breakpoint concentration 1 mg/L; for minimum inhibitory concentration (MIC) in the presence of gentamicin: gentamicin at breakpoint concentration 1 mg/L
Protocol: (§6) To evaluate the ability to modulate bacterial resistance, the tested flavonoids themselves cannot exert antimicrobial activity; therefore, the nontoxic concentration was used, as indicated in Table S5. Clinically relevant antibiotics were selected at breakpoint concentrations for susceptibility testing according to the European Committee on Antimicrobial Susceptibility Testing (EUCAST, version 11.0). […] Flavonoids and their derivatives (from 1 μM to the highest nontoxic concentration) were used in combination with the breakpoint concentration of the antibiotics. After coincubation, the minimum inhibitory concentration (MIC) of flavonoids inhibiting the visible growth of bacteria was determined (Table 2).
(§7) Sensitization of multidrug-resistant clinical bacterial strains was performed according to ref[15]. Antibiotic cutoff concentration was chosen according to the European Committee on Antimicrobial Susceptibility Testing (EUCAST, Clinical breakpoints–bacteria, ver. 11.0). The 200 μM concentration of the derivatives was chosen as the highest test concentration. The absorbance detected at 600 nm was then used to estimate the number of viable cells after 24 h of incubation at 37 °C and 120 rpm.
(§8) Experiments were performed with the respective number of replicates indicated in each figure/table. MIC was determined as IC70. Both IC70 and IC50 values were calculated using the following nonlinear regression in the software GraphPad Prism: […]

MRSA 3596 = experiment: Mode of antimicrobial action with erythromycin or gentamicin, ermA- and aadD-positive strain; assay type: cell-based, S. aureus; conditions: for MIC, Gentamicin [1 mg/L] yes / MIC: MRSA 3596 (aadD); for MIC, Gentamicin [1 mg/L] yes: with gentamicin 1 mg/L; for MIC, erythromycin [1 mg/L] yes / MIC, erythromycin [1 mg/L] no: MRSA 3596 (ermA); for MIC, erythromycin [1 mg/L] yes: with erythromycin 1 mg/L; for MIC, erythromycin [1 mg/L] no: without erythromycin, Table 4; for FIC (Fractional Inhibitory Concentration Index) / effect (mode of action with erythromycin) / effect (mode of action with gentamicin): MRSA 3596; for MIC: Staphylococcus aureus, 24 h, read-out: MIC, Gentamicin [1 mg/L] no, without gentamicin, Table S6
Text: Erythromycin is a macrolide antibiotic that inhibits proteosynthesis by binding to the 50S subunit of the ribosome. In Staphylococcus species, resistance to erythromycin is associated with the presence of methyltransferases (encoded by erm genes) that alter the ribosomal target site. Another typical mechanism of resistance to erythromycin is the presence of an ATP-dependent efflux pump encoded by the msr(A) gene or a major facilitator superfamily (MFS) pump encoded by the lmrS gene. Both efflux pumps reduce the concentration of erythromycin in the cell below the therapeutic dose by transporting it across the membrane to the extracellular space. Another erythromycin resistance gene is the mph(C) gene, the product of which is a phosphotransferase that alters the structure of macrolide antibiotics. To elucidate the mechanism of erythromycin resistance modulation in S. aureus, further tests were performed with the strains MRSA 331 and MRSA 3596, which inactivate erythromycin via a single mechanism (ermC and ermA, respectively). […] Therefore, if the activity was not strain-specific, it would be necessary to consider the effect of the derivatives on this pump (Table 3).
Among the mechanisms of resistance to gentamicin previously described in S. aureus, the presence of enzymes that alter the structure of aminoglycosides is crucial. These enzymes can transfer nucleotides, phosphates, or acetyls to various −OH or −NH2 groups of gentamicin, preventing its subsequent interaction with the cellular target, i.e., the 30S ribosomal subunit. The bifunctional aminoglycoside-modifying enzyme with acetylation and phosphotransferase activities encoded by the gene aac(6’)/aph(2’), 4′,4″ adenyltransferase encoded by the aadD gene, and aminoglycoside O-phosphotransferase encoded by the gene aph(3′) are the most important.[37] […] For this reason, further testing continued using strains MRSA 3596 and MRSA 1584, which inactivate gentamicin only by a single mechanism (aadD and aac(6’)-aph(2’’), respectively).
as §7, §8

S. aureus CCM 4223 = experiment: Antibacterial activity, antibiotic-sensitive strain; assay type: cell-based; conditions: Staphylococcus aureus, CCM4223, three repetitions ± SEM
S. aureus MRSA 9 = experiment: Antibacterial activity, multidrug-resistant strain; assay type: cell-based; conditions: Staphylococcus aureus, MRSA; multidrug-resistant strain; three repetitions ± SEM
Protocol: as §6, §7, §8

[7] = 72 h incubation, resazurin, average of three repetitions ± SEM

Row | Structure (SMILES) | IC50 [1] [µM] | ability to inhibit IL-6 production compared to luteolin, in words [2] | IC50 [2] [µM] | IC50 [3] [µM] | IC50 [4] [µM] | IC50 [5] [µM] | minimum inhibitory concentration (MIC) in the presence of erythromycin [6] | minimum inhibitory concentration (MIC) in the presence of gentamicin [6] | MIC, Gentamicin [1 mg/L] yes (MRSA 3596) [µM] | MIC, erythromycin [1 mg/L] yes (MRSA 3596) [µM] | MIC, erythromycin [1 mg/L] no (MRSA 3596) [µM] | FIC (Fractional Inhibitory Concentration Index) (MRSA 3596; with erythromycin) | MIC (MRSA 3596) [µM] | IC50 (S. aureus CCM 4223) [µM] | IC50 (S. aureus MRSA 9) [µM] | IC50 [4, 7] [µM] | IC50 [5, 7] [µM] | effect (mode of action with erythromycin) (MRSA 3596) | effect (mode of action with gentamicin) (MRSA 3596) | FIC (Fractional Inhibitory Concentration Index) (MRSA 3596; with gentamicin)
1 | O=c1cc(-c2ccc(O)c(O)c2)oc2c(Nc3ccc(F)cc3)c(O)cc(O)c12 [compound 11, 2-(3,4-Dihydroxyphenyl)-8-(4-fluoroanilino)-5,7-dihydroxy-4H–1-benzopyran-4-one] | > 25 | same ability to inhibit IL-6 production as luteolin | 7.2 ± 0.3 | 28.4 ± 0.2 | 76.9 ± 7.7 | 51.9 ± 3.7 | >25 ^note 4 μM | 7.9 µM and 7.9 ± 0.5 µM | > 200 | 28.0 ± 0.5 (≈ 11.1 µg/mL) | 32.9 ± 0.6 (≈ 13 µg/mL) | 0.85 ± 0.03 | > 200 | 42 ± 1.2 | 38 ± 1.2 | – | – | – | – | –
2 | COc1ccc(Nc2c(O)cc(O)c3c(=O)cc(-c4ccc(O)c(O)c4)oc23)cc1 [compound 12, 2-(3,4-Dihydroxyphenyl)-8-(4-methoxyanilino)-5,7-dihydroxy-4H–1-benzopyran-4-one] | 48.3 ± 1.3 | – | 15.3 ± 0.5 | > 50 | – | – | 76.3 µM and 76.3 ± 1.9 µM | 44.0 ± 1.6 µM | 31.4 ± 1.0 (≈ 12.8 µg/mL) | 20.0 ± 0.6 (≈ 8.15 µg/mL) | 53.6 ± 0.5 (≈ 21.8 µg/mL) | 0.37 ± 0.01 | 91 ± 0.9 (≈ 37.1 µg/mL) | 54 ± 0.1 | 112 ± 1.2 | 59.3 ± 6.3 | 35.5 ± 1.5 | synergy (Fractional Inhibitory Concentration Index (FIC) < 0.5 indicates synergism) | synergy (Fractional Inhibitory Concentration Index (FIC) < 0.5 indicates synergism) | 0.34 ± 0.01
3 | O=c1cc(-c2ccc(O)c(O)c2)oc2c(Nc3ccc(C(F)(F)F)cc3)c(O)cc(O)c12 [compound 14, 2-(3,4-Dihydroxyphenyl)-8-(4-(trifluoromethyl)anilino)-5,7-dihydroxy-4H–1-benzopyran-4-one] | > 25 | – | 12.4 ± 0.4 | > 25 | 26.8 ± 1.6 | 29.9 ± 1.1 | >15 ^note 5 μM | – | > 200 | 29.9 ± 1.4 (≈ 13.3 µg/mL) | 14.4 ± 0.1 (≈ 6.41 µg/mL) | 2.07 ± 0.11 | > 200 | 15.3 ± 0.7 | 24 ± 0.1 | – | – | antagonism (≥2 indicates antagonism) | – | –
4 | O=c1c(O)c(-c2ccc(O)c(O)c2)oc2c(Nc3ccc(C(F)(F)F)cc3)c(O)cc(O)c12 [compound 8, 2-(3,4-Dihydroxyphenyl)-8-(4-(trifluoromethyl)anilino)-3,5,7-trihydroxy-4H–1-benzopyran-4-one] | 53.3 ± 0.8 | – | 35.1 ± 1.6 | > 50 | 117.1 ± 0.1 | 111.9 ± 0.5 | >25 ^note 3 μM | 8.1 µM and 8.1 ± 0.6 µM | 5.7 ± 0.1 (≈ 2.63 µg/mL) | 8.4 ± 1.1 (≈ 3.88 µg/mL) | 37.9 ± 0.1 (≈ 17.5 µg/mL) | – | 37.9 ± 0.1 (≈ 17.5 µg/mL) | 39.3 ± 1.8 | 35.3 ± 0.7 | – | – | synergy (Fractional Inhibitory Concentration Index (FIC) < 0.5 indicates synergism) | synergy (Fractional Inhibitory Concentration Index (FIC) < 0.5 indicates synergism) | –
5 | O=c1cc(-c2ccc(O)c(O)c2)oc2c(Nc3ccccc3)c(O)cc(O)c12 [compound 13, 2-(3,4-Dihydroxyphenyl)-8-(anilino)-5,7-dihydroxy-4H–1-benzopyran-4-one] | 29.3 ± 0.1 | same ability to inhibit IL-6 production as luteolin | 7.3 ± 0.6 | > 25 | – | – | >200 µM | 24.7 ± 0.8 µM | 23.2 ± 0.4 (≈ 8.75 µg/mL) | – | – | – | 93 ± 0.6 (≈ 35.1 µg/mL) | 50 ± 1.2 | 51.3 ± 1.3 | 41.4 ± 3.7 | 58.3 ± 2.7 | – | synergy (Fractional Inhibitory Concentration Index (FIC) < 0.5 indicates synergism) | 0.25 ± 0.01
6 | O=c1c(O)c(-c2ccc(O)c(O)c2)oc2c(Nc3ccc(F)cc3)c(O)cc(O)c12 [compound 5, 2-(3,4-Dihydroxyphenyl)-8-(4-fluoroanilino)-3,5,7-trihydroxy-4H–1-benzopyran-4-one] | 37.4 ± 1.6 | – | 14.6 ± 0.8 | > 50 | – | – | >200 µM | 45.2 ± 0.6 µM | > 200 | – | – | – | > 200 | 28 ± 0.1 | 60.7 ± 2.4 | 37.6 ± 3.4 | 95.9 ± 6.1 | – | – | –
